# From US20170319562A1, “Compositions and Methods for Extended Therapy with Aminopyridines” (Acorda Therapeutics, Inc., priority 2009, published 2017)
# Assays:
# [1] = system: patients with multiple sclerosis; assay: Pooled analysis of MS-F202, MS-F203 and MS-F204; assay type: in vivo, human; conditions: Timed-Walk Responders
# Procedure: The primary efficacy variable was analyzed by comparing 4-aminopyridine-SR 10 mg b.i.d., the now FDA-approved clinical dose, to placebo with respect to the proportion of patients with consistent improvements in walking speed (Timed-Walk Responders).
# A set of post-hoc analyses using a traditional definition of response based on threshold change was performed to provide additional evidence of the robustness of the primary analyses using the Timed-Walk Responder criterion. For these analyses, a patient was defined as a “% Responder” at various thresholds of response (at average increases in walking speed during the treatment period of at least 10%, 20%, etc. up to 60% from baseline). Fisher's Exact test was used to compare 4-aminopyridine to placebo for each study and for the pooled analysis.
# DesignAVIethods: All patients from MS-F202, MS-F203 and MS-F204 were included in a pooled analysis. Patients with clinically definite multiple sclerosis were randomized to 4-aminopyridine-SR 10 mg bid or placebo for up to 14 weeks. The primary efficacy variable was defined as a faster walking speed on the Timed 25-Foot Walk (T25FW) for at least 3 of 4 double-blind efficacy visits compared with the maximum walking speed on any of 5 off-treatment visits, and was determined prospectively for MS-F203 and MS-F204 and retrospectively in MS-F202. The average Walking Speed (“WS”) over four baseline and four treatment visits were compared by treatment and TWR status.
# All patients from MS-F202, MS-F203 and MS-F204 were included in a pooled analysis. Patients with clinically definite multiple sclerosis were randomized to 4-aminopyridine-SR 10 mg bid or placebo for up to 14 weeks. The primary efficacy variable was defined as a faster walking speed on the Timed 25-Foot Walk (T25FW) for at least 3 of 4 double-blind efficacy visits compared with the maximum walking speed on any of 5 off-treatment visits, and was determined prospectively for MS-F203 and MS-F204 and retrospectively in MS-F202.
# Methods: Data for patients who received the therapeutic dose of 4-aminopyridine-SR, 10mg bid, in three randomized controlled trials (MS-F202, MS-F203, and MS-F204) were pooled (n=394) and compared to placebo (n=237). Comparative analyses were based on the percent change from baseline in WS using the timed 25-foot walk. […] The percent change in WS for the pooled populations for each double-blind visit was evaluated by time interval to account for differences in study schedules (Days 1-21, 22-49, 50-77, and 78-end of double-blind phase). The percent changes were analyzed with analysis of variance with effects for treatment group, study, and site within study.
# [2] = Single 20 mg intravenous dose, volume of distribution; assay type: in vivo; conditions: plasma
# Text: Measurable levels are present in the saliva.
smiles,measurement,setting,value
Nc1ccncc1 [4-aminopyridine],double-blind average percent change from baseline in walking speed,[1]; average improvement,24%
same,average increase in walking speed by time from last dose,[1]; dose interval 9-10 hrs,25%
same,average increase in walking speed by time from last dose,[1]; dose interval 10-11 hrs,24%
same,average increase in walking speed by time from last dose,[1]; dose interval 11-12 hrs,20%
same,Vd,[2],2.6 L/kg
